We go through seven compounds from PubChem BioAssay (NCI).

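Values below derive from 48-hour exposures of cells grown in 96-well plates, with endpoints linearly interpolated between the two concentrations bracketing the appropriate inhibition level. The concentration for 50% growth inhibition is given as GI50. TGI is the concentration that stops growth completely.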 Where only a bound is given, the exact number is not on record here.

Holding throughout (test): inhibition of tumour cell growth, NCI panel, 48 h
For experiment [1], the system named is HS 578T breast.
In experiment [2] the test system is UACC-257 melanoma.
Experiment [3] has as its system KM20L2 colon.
Experiment [4] deals with SNB-78 CNS.
Experiment [5] deals with XF 498 CNS.
The test system of experiment [6] is RXF-631 renal.
The subject of experiment [7] is DLD-1 colon.
Experiment [8] deals with SF-539 CNS.
Experiment [9] relates to DMS 114 small cell lung.
Experiment [10] deals with DMS 273 small cell lung.
The test system of experiment [11] is M19-MEL melanoma.
The test system of experiment [12] is NCI/ADR-RES ovarian.
The test system of experiment [13] is MCF7 breast.
For experiment [14], the system named is T-47D breast.

Take `COC(C/C=C\C=C\CC/C=C/CC(C)/C=C/C(=C\C(=O)O)CC(=O)O)/C(C)=C\C=C(/C)C(=O)O` (configuration not stated): the TGI in experiment [1] and in [2] was more than 100 µM throughout.

`CCOC(=O)/C(C1=N[C@H](C(=O)OCC)CS1)=C(\O)c1ccccc1`: the TGI in [3], in experiment [4], in experiment [5], in experiment [2], in experiment [6] and in experiment [7] was more than 100 µM in each case.

As for `NNc1nnc(-c2ccccc2)nc1Cc1ccccc1`, the TGI in experiment [3] was more than 100 µM; in experiment [5] it was 79.3 µM; in experiment [8], 64.1 µM; in experiment [9], 17 µM; in [10], more than 100 µM; in experiment [11] it was more than 100 µM. In [7], this compound came in with a TGI of more than 100 µM.

Turning to `Cn1cnc(/C=C/C#N)c1`, the TGI in [12], in experiment [8], in experiment [2] and in experiment [13] was more than 100 µM throughout.

Turning to `COc1ccc(-c2cc(-c3ccc(OC)c(OC)c3)nc(SCCCC(=O)NO)n2)cc1`, the GI50 is 1.91 µM in experiment [1]; 0.977 µM in [12]; 1.31 µM in experiment [8]; 2.75 µM in experiment [13]; 1.42 µM in experiment [14]. For the same compound, the TGI was 33 µM in experiment [1]; 4.77 µM in experiment [12]; 3.48 µM in [8]; 10.2 µM in experiment [13]; more than 100 µM in [14].

On to `Cc1cc(=O)[nH]c(NN2C(Cl)C(=O)C2c2ccco2)n1` (configuration not stated), for which the TGI in experiment [3] is more than 100 µM; in experiment [4], more than 100 µM; in experiment [8], 85.9 µM; in experiment [2], more than 100 µM; in experiment [9], more than 100 µM; in experiment [10] it was more than 100 µM. This compound also yielded a TGI in [11] of more than 100 µM.

Turning to `CCOC(=O)NC(OCc1ccccc1)(C(=O)OC)C(F)(F)F` (configuration not stated), the TGI in [1], in [12], in experiment [8], in experiment [2], in [13] and in experiment [14] was more than 100 µM throughout.
